From ChEMBL document CHEMBL5620396, “Phenotypic screening identifies a trisubstituted imidazo[1,2-a]pyridine series that induces differentiation in multiple AML cell lines” (Eur J Med Chem, 2023)
Values after ≈ are worked out from the molar mass of the structure shown. Active and inactive are the calls of the source. The rule behind the calls is not given here.

Key:
[1] = Semi-thermodynamic aqueous solubility of compound; assay type: physicochemical; conditions: buffer; read-out: Therm_solubility
[2] = Metabolic stability in mouse S9 fraction assessed as compound remaining measured after 45 mins in absence of NADPH and […]; assay type: ADME, subcellular; conditions: read-out: Stability
Kasumi 1 [3] = assay: Induction of differentiation in human Kasumi 1 cells assessed as reduction in cell number at 10 nM incubated for 4 days by acridine orange/DAPI staining based analysis; assay type: functional; conditions: time 4.0 day
THP-1 [4] = assay: Induction of differentiation in human THP-1 cells assessed as reduction in cell number at 10 nM incubated for 4 days by acridine orange/DAPI staining based analysis; assay type: functional; conditions: time 4.0 day
KG-1 [5] = assay: Induction of differentiation in human KG-1 cells assessed as reduction in cell number at 10 nM incubated for 4 days by acridine orange/DAPI staining based analysis; assay type: functional; conditions: time 4.0 day
OCI-AML-3 [6] = assay: Induction of differentiation in human OCI-AML-3 cells assessed as reduction in cell number at 10 nM incubated for 4 days by acridine orange/DAPI staining based analysis; assay type: functional; conditions: time 4.0 day
ME-1 [7] = assay: Induction of differentiation in human ME-1 cells assessed as reduction in cell number at 10 nM incubated for 4 days by acridine orange/DAPI staining based analysis; assay type: functional; conditions: time 4.0 day
HL-60 [8] = assay: Induction of differentiation in human HL-60 cells assessed as reduction in cell number at 10 nM incubated for 4 days by acridine orange/DAPI staining based analysis; assay type: functional; conditions: time 4.0 day
Kasumi 1 [9] = assay: Induction of differentiation in human Kasumi 1 cells assessed as reduction in cell number at 10 uM incubated for 4 days by acridine orange/DAPI staining based analysis; assay type: functional; conditions: time 4.0 day
HL-60 [10] = assay: Induction of differentiation in human HL-60 cells assessed as reduction in cell number at 10 uM incubated for 4 days by acridine orange/DAPI staining based analysis; assay type: functional; conditions: time 4.0 day
HL-60 [11] = assay: Induction of morphological changes in human HL-60 cells assessed as appearance of granules and vacuoles at 10 uM; assay type: functional, cell-based
THP-1 [12] = assay: Induction of differentiation in human THP-1 cells assessed as reduction in cell number at 10 uM incubated for 4 days by acridine orange/DAPI staining based analysis; assay type: functional; conditions: time 4.0 day
KG-1 [13] = assay: Induction of differentiation in human KG-1 cells assessed as reduction in cell number at 10 uM incubated for 4 days by acridine orange/DAPI staining based analysis; assay type: functional; conditions: time 4.0 day
OCI-AML-3 [14] = assay: Induction of differentiation in human OCI-AML-3 cells assessed as reduction in cell number at 10 uM incubated for 4 days by acridine orange/DAPI staining based analysis; assay type: functional; conditions: time 4.0 day
HL-60 [15] = assay: Induction of differentiation in human HL-60 cells assessed as upregulation of CD11b response at 1 uM incubated for 4 days by flow cytometry analysis relative to control; assay type: functional; conditions: time 4 day
ME-1 [16] = assay: Induction of differentiation in human ME-1 cells assessed as reduction in cell number at 10 uM incubated for 4 days by acridine orange/DAPI staining based analysis; assay type: functional; conditions: time 4.0 day
HL-60 [17] = assay: Induction of differentiation in human HL-60 cells assessed as upregulation of CD11b response at 10 uM incubated for 4 days by flow cytometry analysis relative to control; assay type: functional; conditions: time 4 day
HL-60 [18] = assay: Induction of morphological changes in human HL-60 cells assessed as variation in cell size at 10 uM; assay type: functional, cell-based
HL-60 [19] = assay: Induction of morphological changes in human HL-60 cells assessed as appearance of wider and lighter cytoplasm at 10 uM; assay type: functional, cell-based
HL-60 [20] = assay: Induction of morphological changes in human HL-60 cells assessed as variations in nuclear segmentation at 10 uM; assay type: functional, cell-based

SMILES | solubility thermodynamic [1] [µM] | other results
Cc1ccccc1-c1cc(NS(C)(=O)=O)c2ncc(-c3ccc4c(cnn4C)c3)n2c1 | 13 (≈ 5.61 µg/mL) | 
Cc1cc(C#N)ccc1-c1cc(NS(C)(=O)=O)c2ncc(-c3ccc4c(cnn4C)c3)n2c1 | 26 (≈ 11.9 µg/mL) | 
COc1ccccc1-c1cc(NC=O)c2nccn2c1 | > 200 | 
COc1ccc(-c2cnc3c(N4CCOCC4)nc(-c4ccccc4OC)cn23)cc1OC | 4 (≈ 1.79 µg/mL) | 
Cn1ncc2cc(-c3cnc4c(NS(C)(=O)=O)cc(-c5ccc(F)cc5Cl)cn34)ccc21 | 9 (≈ 4.23 µg/mL) | 
CC1=C(c2cc(NS(C)(=O)=O)c3ncc(-c4ccc5c(cnn5C)c4)n3c2)CCCC1 | 26 (≈ 11.3 µg/mL) | 
COc1ccc(-c2cnc3c(N(C)C=O)cc(-c4ccccc4OC)cn23)cc1OC | 1 (≈ 0.417 µg/mL) | remaining at 0.75 h [2]: 46%
COc1ccccc1-c1cc(NS(C)(=O)=O)c2ncc(-c3ccc4c(cnn4C)c3)n2c1 | 18 (≈ 8.06 µg/mL) | 
COc1ccccc1-c1cc(NC=O)c2ncc(-c3ccc4c(cnn4C)c3)n2c1 | 2 (≈ 0.795 µg/mL) | 
COc1ccccc1-c1cc(NC=O)c2ncc(-c3ccc4nn(C)c(C)c4c3)n2c1 | 4 (≈ 1.65 µg/mL) | 
COc1ccc(-c2cnc3c(N4CC5(COC5)C4)nc(-c4ccccc4OC)cn23)cc1OC | 26 (≈ 11.9 µg/mL) | 
COc1ccc(-c2cnc3c(NS(C)(=O)=O)cc(-c4ccccc4OC)cn23)cc1OC | 43 (≈ 19.5 µg/mL) | 
COc1ccc(-c2cnc3ncc(-c4ccccc4OC)cn23)cc1OC | 1 (≈ 0.361 µg/mL) | remaining at 0.75 h [2]: 70%
CCCCCCCCCCCCCC(=O)O[C@@H]1[C@@H](C)[C@@]2(O)[C@@H](C=C(CO)C[C@]3(O)C(=O)C(C)=C[C@@H]23)[C@@H]2C(C)(C)[C@]12OC(C)=O |  | Activity (Kasumi 1 [3]): Active; Activity (THP-1 [4]): Active; Activity (KG-1 [5]): Active; Activity (OCI-AML-3 [6]): Active; Activity (ME-1 [7]): Active; Activity (HL-60 [8]): Active
COc1ccccc1-c1cc(NC=O)c2ncc(-c3ccc4c(c3)c(C)nn4C)n2c1 | 6 (≈ 2.47 µg/mL) | 
COc1ccc(-c2cnc3c(NC=O)nc(-c4ccccc4OC)cn23)cc1OC | 1 (≈ 0.404 µg/mL) | remaining at 0.75 h [2]: 0.5%
COc1ccc(-c2cnc3c(NC=O)cc(-c4ccccc4OC)cn23)cc1C#N | 2 (≈ 0.797 µg/mL) | 
COc1cc(F)ccc1-c1cc(NS(C)(=O)=O)c2ncc(-c3ccc4c(cnn4C)c3)n2c1 | 12 (≈ 5.59 µg/mL) | 
COc1ccccc1-c1cc(NC=O)c2ncc(-c3ccccc3)n2c1 | 2 (≈ 0.687 µg/mL) | 
COc1cc(C#N)ccc1-c1cc(NS(C)(=O)=O)c2ncc(-c3ccc4c(cnn4C)c3)n2c1 | 2 (≈ 0.945 µg/mL) | 
COc1ccccc1-c1cc(NC=O)c2ncc(-c3ccc4nc(C)oc4c3)n2c1 | 2 (≈ 0.797 µg/mL) | 
COc1ccccc1-c1cc(NC=O)c2ncc(-c3ccc4c(C)nn(C)c4c3)n2c1 | 2 (≈ 0.823 µg/mL) | 
COc1ccc(-c2cnc3c(C(N)=O)cc(-c4ccccc4OC)cn23)cc1OC | 12 (≈ 4.84 µg/mL) | 
CNc1nc(-c2ccccc2OC)cn2c(-c3ccc(OC)c(OC)c3)cnc12 | 39 (≈ 15.2 µg/mL) | 
COc1ccc(-c2cnc3c(NC=O)cc(-c4ccccc4OC)cn23)cc1OC | 37 (≈ 14.9 µg/mL) | Activity (Kasumi 1 [9]): Active; Activity (HL-60 [10]): Active; Activity (HL-60 [11]): Active; Activity (THP-1 [12]): Active; Activity (KG-1 [13]): Active; Activity (OCI-AML-3 [14]): Active; Activity (HL-60 [15]): 14%; Activity (ME-1 [16]): Active; Activity (HL-60 [17]): <=78%; Activity (HL-60 [18]): Active; Activity (HL-60 [19]): Active; Activity (HL-60 [20]): Active; remaining at 0.75 h [2]: 28%
COc1ccc(-c2cnc3c(N)cc(-c4ccccc4OC)cn23)cc1OC | 38 (≈ 14.3 µg/mL) | 
COc1ccc(-c2cnc3ccc(-c4ccccc4OC)cn23)cc1OC | 156 (≈ 56.2 µg/mL) | 
COc1ccc(-n2cnc3cnc(-c4ccccc4OC)cc32)cc1OC | 200 (≈ 72.3 µg/mL) | 
CNc1cc(-c2ccccc2OC)cn2c(-c3ccc(OC)c(OC)c3)cnc12 | 8 (≈ 3.12 µg/mL) | remaining at 0.75 h [2]: 81%
COc1ccc(-c2cnc3c(NC(C)=O)cc(-c4ccccc4OC)cn23)cc1OC | 39 (≈ 16.3 µg/mL) | remaining at 0.75 h [2]: 1%
